# Values quoted from earlier work, collected in patent US20250312313A1, “PHARMACEUTICAL COMPOSITION FOR SUBLINGUAL ADMINISTRATION OF CLONIDINE” (NOVUMGEN LIMITED, priority 2022, published 2025).
# Conditions: oral
smiles,measurement,value
Clc1cccc(Cl)c1N=C1NCCN1 [Clonidine],absorption from the gastrointestinal tract,almost completely absorbed
